Results: paper PMC10338470, “Phase 1 study of GSK3368715, a type I PRMT inhibitor, in patients with advanced solid tumors” (British Journal of Cancer, 2023)
Several values for one entry are separate records, joined by “and”; a condition that tells them apart may be missing. Equal values may be shown once. Marks after values point to notes of the source that are not given here.

Assay: Phase 1 safety: adverse events, dose-limiting toxicities, thromboembolic events (NCI-CTCAE v5.0)
Type: in vivo, human
Protocol: The study was approved by the ethics committee at every participating institution and was conducted according to the recommendations of Good Clinical Practice and the Declaration of Helsinki. All patients provided written informed consent to participate in the study.
Part 1 of this study included a dose-escalation cohort to assess the incidence of dose-limiting toxicities (DLTs) and adverse events, and a PK/PD cohort to characterize the PK/PD profile of GSK3368715 (Fig. 1). A food-effect cohort and a second study phase (part 2) to assess the preliminary clinical activity of GSK3368715 were also planned.
For each dosing group in the dose-escalation cohort, GSK3368715 was administered on day 1, no treatment was administered on days 2 and 3 (to characterize single-dose PK), and daily dosing continued thereafter until disease progression, unacceptable toxicity, or withdrawal of consent. Study treatment was dosed at approximately the same time of day (±4 h), with no food for 1 h before and 2 h after each dose.
The study resumed under a protocol amendment with the PK/PD cohort starting at a daily dose of 100 mg, and dose escalation was limited to 50-mg increments. The incidence and frequency of TEEs were added to the DLT criteria (grade 2 TEE requiring systemic anticoagulation or ≥grade 3 TEE) with extended monitoring to 8 weeks or until study discontinuation, whichever occurred first. Further, eligibility criteria were modified to exclude patients at high risk of thrombosis (ie, Khorana score ≥3 or prior medical history of TEE). Patients with a Khorana score of 2 were considered for prophylactic anticoagulation if deemed appropriate by the investigator. Khorana score is a risk assessment model based on clinical and laboratory parameters to classify the risk for chemotherapy-associated venous thromboembolism (Supplemental Table 2).
Adverse events were coded using the standard MedDRA groupings and graded according to NCI-CTCAE version 5.0. Clinical chemistry, urinalysis, and coagulation tests were performed predose on days 1, 8, 15, 22, and weekly thereafter. Tumor imaging occurred every 8 weeks until week 33, and then every 16 weeks thereafter.
The Neuenschwander Continual Reassessment Method dose-escalation design has been previously described. […] Additionally, following the protocol amendment, dose escalations were limited to 50-mg increments.
Adverse events and DLTs were summarized descriptively by dose cohort. Pharmacokinetic parameters of GSK3368715 and its metabolites (GSK3963583 and GSK3983164) were estimated in the PK/PD population (all participants for whom a PK sample was obtained) using a noncompartmental analysis model (WinNonlin version 8.1) and summarized descriptively. Best overall response as per RECIST 1.1 was summarized descriptively by dose cohort. Levels of tumor cell and plasma pharmacodynamic biomarkers were also summarized descriptively.

SMILES: CCOCC1(COCC)CCC(c2[nH]ncc2CN(C)CCNC)CC1 [GSK3368715]
- Grade 3 TEE events: 8
- AE: Anemia (50 mg (n = 3)): 1 (33) n (%)
- AE: Diarrhea (50 mg (n = 3)): 1 (33) n (%)
- AE: Dyspnea (50 mg (n = 3)): 1 (33) n (%)
- AE: Fatigue (50 mg (n = 3)): 1 (33) n (%)
- AE: Nausea (50 mg (n = 3)): 2 (67) n (%)
- AE: Neutrophil count decreased (50 mg (n = 3)): 0 n (%)
- AE: Pulmonary embolism (50 mg (n = 3)): 0 n (%)
- AE: Pyrexia (50 mg (n = 3)): 1 (33) n (%)
- AE: Vomiting (50 mg (n = 3)): 2 (67) n (%)
- Any AE (all AEs and all grades) (50 mg (n = 3)): 3 (100) n (%)
- GSK3368715-related Grade 3 AE: Aortic thrombosis (50 mg (n = 3)): 0 n (%)
- GSK3368715-related Grade 3 AE: Atrial fibrillation (50 mg (n = 3)): 0 n (%)
- GSK3368715-related Grade 3 AE: Deep vein thrombosis (50 mg (n = 3)): 0 n (%)
- GSK3368715-related Grade 3 AE: Neutrophil count decreased (50 mg (n = 3)): 0 n (%)
- GSK3368715-related Grade 4 AE: Lymphocyte count decreased (50 mg (n = 3)): 0 n (%)
- GSK3368715-related Grade 4 AE: Platelet count decreased (50 mg (n = 3)): 0 n (%)
- Dose-limiting toxicities (DLTs) (50 mg dose group): no DLTs
- Thromboembolic event grade: Portal vein thrombosis (50 mg, patient with cholangiocarcinoma): 2
- AE: Anemia (100 mg (n = 16)): 6 (38)^b n (%)
- AE: Diarrhea (100 mg (n = 16)): 5 (31)^b n (%)
- AE: Dyspnea (100 mg (n = 16)): 2 (13) n (%)
- AE: Fatigue (100 mg (n = 16)): 6 (38) n (%)
- AE: Nausea (100 mg (n = 16)): 3 (19) n (%)
- AE: Neutrophil count decreased (100 mg (n = 16)): 1 (6)^d,e n (%)
- AE: Pulmonary embolism (100 mg (n = 16)): 2 (13)^c n (%)
- AE: Pyrexia (100 mg (n = 16)): 5 (31) n (%)
- AE: Vomiting (100 mg (n = 16)): 2 (13) n (%)
- Any AE (all AEs and all grades) (100 mg (n = 16)): 15 (94) n (%)
- GSK3368715-related Grade 3 AE: Aortic thrombosis (100 mg (n = 16)): 0 n (%)
- GSK3368715-related Grade 3 AE: Atrial fibrillation (100 mg (n = 16)): 0 n (%)
- GSK3368715-related Grade 3 AE: Deep vein thrombosis (100 mg (n = 16)): 0 n (%)
- GSK3368715-related Grade 3 AE: Neutrophil count decreased (100 mg (n = 16)): 1 (6)^e n (%)
- GSK3368715-related Grade 4 AE: Lymphocyte count decreased (100 mg (n = 16)): 0 n (%)
- GSK3368715-related Grade 4 AE: Platelet count decreased (100 mg (n = 16)): 0 n (%)
- Thromboembolic event grade: Pulmonary embolism (100 mg, patient with head and neck squamous cell carcinoma, study drug withdrawn): 2
- Thromboembolic event grade: Pulmonary embolism (100 mg, patient with pancreas adenocarcinoma): 3
- Grade 5 pulmonary embolism, number (200 mg): 1
- AE: Anemia (200 mg (n = 12)): 2 (17) n (%)
- AE: Diarrhea (200 mg (n = 12)): 1 (8) n (%)
- AE: Dyspnea (200 mg (n = 12)): 1 (8) n (%)
- AE: Fatigue (200 mg (n = 12)): 1 (8) n (%)
- AE: Nausea (200 mg (n = 12)): 4 (33) n (%)
- AE: Neutrophil count decreased (200 mg (n = 12)): 3 (25) n (%)
- AE: Pyrexia (200 mg (n = 12)): 0 n (%)
- AE: Vomiting (200 mg (n = 12)): 3 (25) n (%)
- Any AE (all AEs and all grades) (200 mg (n = 12)): 12 (100) n (%)
- GSK3368715-related Grade 3 AE: Aortic thrombosis (200 mg (n = 12)): 1 (8)^b,g n (%)
- GSK3368715-related Grade 3 AE: Atrial fibrillation (200 mg (n = 12)): 1 (8)^g n (%)
- GSK3368715-related Grade 3 AE: Deep vein thrombosis (200 mg (n = 12)): 1 (8) n (%)
- GSK3368715-related Grade 3 AE: Neutrophil count decreased (200 mg (n = 12)): 0 n (%)
- GSK3368715-related Grade 4 AE: Lymphocyte count decreased (200 mg (n = 12)): 1 (8)^b n (%)
- GSK3368715-related Grade 4 AE: Platelet count decreased (200 mg (n = 12)): 1 (8)^b,g n (%)
- Thromboembolic event grade: Pulmonary embolism (200 mg, patient with epithelioid hemangioendothelioma): 3
- Thromboembolic event grade: Pulmonary embolism (200 mg, patient with mucoepidermoid carcinoma of parotid): 3
- Thromboembolic event grade: Pulmonary embolism (200 mg, patient with pancreas adenocarcinoma mucinous, fatal): 5
- Participants with grade 2 portal vein thrombosis (50-mg dose group): 1
- Dose-limiting toxicities (DLTs) (100-mg dose group): no DLTs
- Patients with grade 3 decrease in neutrophil count leading to dose reduction (100-mg dose group): 1 patient
- Pulmonary embolisms reported (1 grade 2, 1 grade 3) (100-mg dose group): 2
- Grade 3 aortic thrombosis events (200-mg dose group): 1
- Grade 3 deep vein thrombosis events (200-mg dose group): 1
- Grade 3 portal vein thrombosis events (200-mg dose group): 2
- Grade 3 pulmonary embolism events (200-mg dose group): 4
- Patients with grade 3 aortic thrombosis (200-mg dose group): 1 patient
- Patients with grade 3 atrial fibrillation (200-mg dose group): 1 patient
- Patients with grade 3 deep vein thrombosis (200-mg dose group): 1 patient
- Patients with grade 4 decrease in lymphocyte count (200-mg dose group): 1 patient
- Patients with grade 4 decrease in platelet count (200-mg dose group): 2 patients
- Patients with dose-limiting toxicities (DLTs) (200-mg dose group (n = 12), aortic thrombosis, atrial fibrillation, decrease in platelet count): 25%
- Fatal (grade 5) SAEs (200-mg dose group, PE and intracranial hemorrhage): 2
- AE: Anemia (Total (N = 31)): 9 [29%] n (%) and 9 (29) n (%)
- AE: Diarrhea (Total (N = 31)): 7 (23) n (%)
- AE: Dyspnea (Total (N = 31)): 4 (13) n (%)
- AE: Fatigue (Total (N = 31)): 8 [26%] n (%) and 8 (26) n (%)
- AE: Nausea (Total (N = 31)): 9 [29%] n (%) and 9 (29) n (%)
- AE: Neutrophil count decreased (Total (N = 31)): 4 (13) n (%)
- AE: Pyrexia (Total (N = 31)): 6 (19) n (%)
- AE: Vomiting (Total (N = 31)): 7 (23) n (%)
- Any AE (all AEs and all grades) (Total (N = 31)): 30 [97%] n (%) and 30 (97) n (%)
- GSK3368715-related AEs by maximum grade: Grade 3 (Total (N = 31)): 4 (13) n (%)
- GSK3368715-related AEs by maximum grade: Grade 4 (Total (N = 31)): 2 (6) n (%)
- Number of grade 3 TEEs (across dose groups (abstract)): 8
- Patients experiencing thromboembolic events (TEEs) (across dose groups, N = 31, 95% confidence interval 14–48%): 29%
- Number of thromboembolic events (TEEs) (across dose groups, in 9 participants): 12
- Changes from baseline for clinical chemistry, hematology, urinalysis, or echocardiograms (ECGs) (all dose groups): No clinically significant trends
- Patients who discontinued due to a DLT (all dose groups, N = 31): 3
- Patients who discontinued due to an AE (all dose groups, N = 31): 5 patients
- Patients with ≥1 grade 3 or grade 4 treatment emergent AEs (all dose groups, N = 31): 52%
- Patients with ≥1 serious AE (SAE) (all dose groups, N = 31): 39%
